# Values joined by “and” are separate entries in the source; they are usually repeats but may differ in a detail not shown here. Equal values may be shown once. Inconclusive results and toxic doses are left out.
# Tested on: P388 leukemia ip, CD2F1 mice, survival T/C
# Experiment: NCI In Vivo Anticancer Drug Screen. Data for tumor model P388 Leukemia (intraperitoneal) in CD2F1 (CDF1) mice
# Conditions: endpoint: median survival time, higher = longer survival
# Summary of the method: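 Mice carrying the transplanted tumor received test compound or vehicle. Survival was recorded in each group, and the value is the treated-group measurement divided by that of the vehicle-treated control group.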
# [1] = dose: 12.5 mg/kg/injection, schedule: Q04DX003 (ip), vehicle: water
# [2] = dose: 25.0 mg/kg/injection, schedule: Q01DX009 (ip), vehicle: Klucel (hydroxypropylcellulose) (HPC)
# [3] = dose: 25.0 mg/kg/injection, schedule: Q04DX003 (ip), vehicle: water
# [4] = dose: 50.0 mg/kg/injection, schedule: Q04DX003 (ip), vehicle: water
# [5] = dose: 50.0 mg/kg/injection, schedule: Q01DX005 (ip), vehicle: saline with Tween-80
# [6] = dose: 100.0 mg/kg/injection, schedule: Q01DX005 (ip), vehicle: saline with Tween-80
# [7] = dose: 200.0 mg/kg/injection, schedule: Q01DX005 (ip), vehicle: saline with Tween-80
# [8] = dose: 12.5 mg/kg/injection, schedule: Q01DX005 (ip), vehicle: saline with Tween-80
# [9] = dose: 25.0 mg/kg/injection, schedule: Q01DX005 (ip), vehicle: saline with Tween-80
# [10] = dose: 12.5 mg/kg/injection, schedule: Q01DX009 (ip), vehicle: saline with Tween-80
# [11] = dose: 100.0 mg/kg/injection, schedule: Q04DX003 (ip), vehicle: Klucel (hydroxypropylcellulose) (HPC)
# [12] = dose: 200.0 mg/kg/injection, schedule: Q04DX003 (ip), vehicle: Klucel (hydroxypropylcellulose) (HPC)
# [13] = dose: 400.0 mg/kg/injection, schedule: Q04DX003 (ip), vehicle: Klucel (hydroxypropylcellulose) (HPC)
# [14] = dose: 60.0 mg/kg/injection, schedule: Q01DX005 (ip), vehicle: saline
# [15] = dose: 120.0 mg/kg/injection, schedule: Q01DX005 (ip), vehicle: saline
# [16] = dose: 50.0 mg/kg/injection, schedule: Q01DX009 (ip), vehicle: Klucel (hydroxypropylcellulose) (HPC)
# [17] = dose: 100.0 mg/kg/injection, schedule: Q01DX009 (ip), vehicle: Klucel (hydroxypropylcellulose) (HPC)
# [18] = dose: 50.0 mg/kg/injection, schedule: Q01DX005 (ip), vehicle: Klucel (hydroxypropylcellulose) (HPC)
# [19] = dose: 100.0 mg/kg/injection, schedule: Q01DX005 (ip), vehicle: Klucel (hydroxypropylcellulose) (HPC)
# [20] = dose: 200.0 mg/kg/injection, schedule: Q01DX005 (ip), vehicle: Klucel (hydroxypropylcellulose) (HPC)
# [21] = dose: 240.0 mg/kg/injection, schedule: Q01DX005 (ip), vehicle: saline
compound,measurement,setting,value
CCN(Cc1ccc(Cl)c(Cl)c1)c1ccc2nc(N)nc(N)c2c1C,T/C,"dose: 6.25 mg/kg/injection, schedule: Q01DX009 (ip), vehicle: Klucel (hydroxypropylcellulose) (HPC)",121 % of control
same,T/C,"dose: 12.5 mg/kg/injection, schedule: Q01DX009 (ip), vehicle: Klucel (hydroxypropylcellulose) (HPC)",116 % of control
same,T/C,[1],116 % of control and 91 % of control
same,T/C,[2],114 % of control
same,T/C,[3],114 % of control and 122 % of control
same,T/C,[4],155 % of control
same,T/C,"dose: 100.0 mg/kg/injection, schedule: Q04DX003 (ip), vehicle: water",117 % of control and 90 % of control
CCOC(=O)/C(Nc1ccc(C(=O)OCC)cc1)=C1\COc2nc(N)[nH]c(=O)c2N1,T/C,[5],93 % of control
same,T/C,[6],91 % of control
same,T/C,[7],107 % of control
[Co].c1c[nH]cn1.c1c[nH]cn1.c1c[nH]cn1.c1c[nH]cn1.c1c[nH]cn1.c1c[nH]cn1,T/C,[8],103 % of control
same,T/C,[9],94 % of control
same,T/C,[5],103 % of control and 107 % of control
COc1cc(N)ccc1NC(=O)c1ccccc1,T/C,"dose: 6.25 mg/kg/injection, schedule: Q01DX009 (ip), vehicle: saline with Tween-80",109 % of control
same,T/C,[10],100 % of control
O=c1c2ccccc2[nH]c2c(O)c3c(=O)c4ccccc4[nH]c3cc12,T/C,[11],102 % of control
same,T/C,[12],92 % of control
same,T/C,[13],102 % of control
Cc1ccc(/C(=N/NS(=O)(=O)c2ccc(C)cc2)C(C)c2ccccc2)cc1 (stereo not given),T/C,"dose: 100.0 mg/kg/injection, schedule: Q01DX001 (ip), vehicle: Klucel (hydroxypropylcellulose) (HPC)",99 % of control
same,T/C,"dose: 200.0 mg/kg/injection, schedule: Q01DX001 (ip), vehicle: Klucel (hydroxypropylcellulose) (HPC)",100 % of control
same,T/C,"dose: 400.0 mg/kg/injection, schedule: Q01DX001 (ip), vehicle: Klucel (hydroxypropylcellulose) (HPC)",99 % of control
C[C@]12CCC(=O)C=C1CC[C@@H]1[C@@H]2[C@@H](O)C[C@@]2(C)[C@H]1CC[C@]2(O)C(=O)COC(=O)COCC(=O)O,T/C,"dose: 100.0 mg/kg/injection, schedule: Q04DX003 (ip), vehicle: saline with Tween-80",104 % of control
same,T/C,"dose: 200.0 mg/kg/injection, schedule: Q04DX003 (ip), vehicle: saline with Tween-80",100 % of control
same,T/C,"dose: 400.0 mg/kg/injection, schedule: Q04DX003 (ip), vehicle: saline with Tween-80",116 % of control
Cc1cc(C)cc(C(=O)NCc2ccc[n+]([O-])c2)c1,T/C,[14],97 % of control
same,T/C,[15],94 % of control
NS(=O)(=O)c1ccc(N=Nc2c(O)n(-c3ccccc3)n(-c3ccccc3)c2=O)cc1,T/C,[11],107 % of control
same,T/C,[12],102 % of control
same,T/C,[13],102 % of control
CCn1c(=O)c2c(nc(Cl)n2C2OC(COC(C)=O)C(OC(C)=O)C(OC(C)=O)C2OC(C)=O)n(CC)c1=O (stereo not given),T/C,[2],100 % of control
same,T/C,[16],99 % of control
same,T/C,[17],99 % of control
O=C(O)CCCCCSCCCCCCSCCCCCC(=O)O,T/C,[18],102 % of control
same,T/C,[19],105 % of control
same,T/C,[20],100 % of control
CC(=O)Sc1nnc2c3ccccc3n(C(C)=O)c2n1,T/C,"dose: 100.0 mg/kg/injection, schedule: Q04DX003 (ip), vehicle: saline",99 % of control
same,T/C,"dose: 200.0 mg/kg/injection, schedule: Q04DX003 (ip), vehicle: saline",97 % of control
same,T/C,"dose: 400.0 mg/kg/injection, schedule: Q04DX003 (ip), vehicle: saline",105 % of control
COc1cccc2c1C(=O)c1c(O)c3c(c(O)c1C2=O)C[C@](O)(C(=O)CO)CC3OC1CC(N)C(OC2CCCCO2)C(C)O1 (stereo not given in full),T/C,"dose: 0.78 mg/kg/injection, schedule: Q04DX003 (ip), vehicle: water",122 % of control
same,T/C,"dose: 3.12 mg/kg/injection, schedule: Q04DX003 (ip), vehicle: water",153 % of control and 240 % of control
same,T/C,"dose: 3.13 mg/kg/injection, schedule: Q04DX003 (ip), vehicle: water",161 % of control
same,T/C,"dose: 3.75 mg/kg/injection, schedule: Q01DX005 (ip), vehicle: water",154 % of control
same,T/C,"dose: 6.25 mg/kg/injection, schedule: Q04DX003 (ip), vehicle: water",192 % of control and 200 % of control and 280 % of control
same,T/C,"dose: 7.5 mg/kg/injection, schedule: Q01DX005 (ip), vehicle: water",151 % of control
same,T/C,[1],154 % of control and 416 % of control
same,T/C,"dose: 15.0 mg/kg/injection, schedule: Q01DX005 (ip), vehicle: water",196 % of control
same,T/C,[3],91 % of control
same,T/C,[4],87 % of control
CCOc1nc(N)nc(C)c1N=Nc1ccc(O)cc1,T/C,[14],100 % of control
same,T/C,[15],99 % of control
same,T/C,[21],96 % of control
O=C(Nc1n[nH]c(NC(=O)C(F)(F)F)n1)C(F)(F)F,T/C,[18],103 % of control
same,T/C,[19],103 % of control
same,T/C,[20],100 % of control
N#C/C(=C1/OC(=N)C(c2ccccc2Cl)C1=O)c1ccccc1Cl (stereo not given),T/C,[5],103 % of control
same,T/C,[6],107 % of control
same,T/C,[7],103 % of control
O=S1(=O)C(c2cccc(F)c2)=C(O)c2cc3ccccc3nc21,T/C,"dose: 50.0 mg/kg/injection, schedule: Q01DX009 (ip), vehicle: saline with Tween-80",104 % of control
same,T/C,"dose: 100.0 mg/kg/injection, schedule: Q01DX009 (ip), vehicle: saline with Tween-80",97 % of control
same,T/C,"dose: 200.0 mg/kg/injection, schedule: Q01DX009 (ip), vehicle: saline with Tween-80",104 % of control
CC1(C)CC(=O)[C@H]2SCC(=O)CC21 (stereo not given in full),T/C,[5],86 % of control
same,T/C,[6],99 % of control
C[N+](C)(C)CCCCCCN,T/C,"dose: 50.0 mg/kg/injection, schedule: Q01DX009 (ip), vehicle: saline",102 % of control
same,T/C,"dose: 100.0 mg/kg/injection, schedule: Q01DX009 (ip), vehicle: saline",97 % of control
COC1=CC(=O)OC1n1ccc(OC)nc1=O (stereo not given),T/C,[18],100 % of control
same,T/C,[19],95 % of control
same,T/C,[20],95 % of control
COc1ccc2c(c1OC(C)=O)-c1cc(OC(C)=O)cc3c1C(C2)N(C(=O)CN(CCCl)CCCl)CC3 (stereo not given),T/C,"dose: 6.25 mg/kg/injection, schedule: Q04DX003 (ip), vehicle: other",150 % of control
same,T/C,"dose: 12.5 mg/kg/injection, schedule: Q04DX003 (ip), vehicle: other",170 % of control
same,T/C,"dose: 25.0 mg/kg/injection, schedule: Q04DX003 (ip), vehicle: DMSO",170 % of control
same,T/C,"dose: 25.0 mg/kg/injection, schedule: Q04DX003 (ip), vehicle: other",185 % of control
same,T/C,"dose: 50.0 mg/kg/injection, schedule: Q04DX003 (ip), vehicle: DMSO",94 % of control
same,T/C,"dose: 50.0 mg/kg/injection, schedule: Q04DX003 (ip), vehicle: other",95 % of control
CC(=O)Nc1nnc(-c2coc3ccc(C)cc3c2=O)s1,T/C,"dose: 6.25 mg/kg/injection, schedule: Q01DX005 (ip), vehicle: saline with Tween-80",99 % of control
same,T/C,[8],88 % of control and 89 % of control
same,T/C,[9],86 % of control
same,T/C,[5],86 % of control
COC(=O)/C(=C\SC(C)=O)NC(C)=O,T/C,"dose: 100.0 mg/kg/injection, schedule: Q04DX002 (ip), vehicle: saline with Tween-80",107 % of control
same,T/C,"dose: 200.0 mg/kg/injection, schedule: Q04DX002 (ip), vehicle: saline with Tween-80",105 % of control
same,T/C,"dose: 400.0 mg/kg/injection, schedule: Q04DX002 (ip), vehicle: saline with Tween-80",117 % of control
Cc1cccc(/N=C/c2ccccc2O)n1,T/C,[16],91 % of control
same,T/C,[17],86 % of control
CCCCCCCCCCCCCCCC[N+](C)(C)CCN=[N+]=[N-],T/C,[10],110 % of control
same,T/C,"dose: 25.0 mg/kg/injection, schedule: Q01DX009 (ip), vehicle: saline with Tween-80",107 % of control
OCCC(CCN1CCOCC1)(c1ccccc1)C1(O)CCCC1 (stereo not given),T/C,[14],95 % of control
same,T/C,[15],98 % of control
same,T/C,[21],92 % of control
Cn1c(N)c(N=O)c(=O)n(C)c1=O,T/C,"dose: 90.0 mg/kg/injection, schedule: Q01DX009 (ip), vehicle: saline with Tween-80",90 % of control
same,T/C,"dose: 180.0 mg/kg/injection, schedule: Q01DX009 (ip), vehicle: saline with Tween-80",95 % of control
same,T/C,"dose: 360.0 mg/kg/injection, schedule: Q01DX009 (ip), vehicle: saline with Tween-80",95 % of control

# Source: PubChem BioAssay AID330 (DTP/NCI, 2004)
